According to patent US20130345257A1, “COMPOSITION FOR LUPUS NEPHRITIS AND METHODS OF MAKING AND USING THE SAME” (The Regents of the University of California, priority 2012, published 2013):
“Also recorded” adds a separate entry of the source.

Key:
Format in all cases: in vivo, mouse
[1] = test system: leukocyte subsets present in kidney; test: Leukocyte subsets in kidney of treated BWF1 mice by flow cytometry; set-up: Frequency of cells ± SEM: CD11c^+CD11b− (DC) / Frequency of cells ± SEM: CD11b^+Ly6C^+Ly6G− / Frequency of cells ± SEM: CD11b^+Ly6C^+Ly6G+ / Frequency of cells ± SEM: CD4+ / Frequency of cells ± SEM: CD8+ / Frequency of cells ± SEM: CD11b^+MDSC−(Mφ) / Frequency of cells ± SEM: CD11c^+CD11b+(DC): unit not given here; conditions: for Frequency of cells ± SEM: CD4+ / Frequency of cells ± SEM: CD8+ / Frequency of cells ± SEM: CD11b^+Ly6C^+Ly6G+ / Frequency of cells ± SEM: CD11b^+Ly6C^+Ly6G− / Frequency of cells ± SEM: CD11b^+MDSC−(Mφ) / Frequency of cells ± SEM: CD11c^+CD11b+(DC) / Frequency of cells ± SEM: CD11c^+CD11b− (DC) / Frequency of cells ± SEM: CD19+: kidney, LAQ 25 mg/kg, MMF 100 mg/kg
Procedure: Single cell suspensions of splenocytes or kidney cells were prepared using cell strainers (Fisher), followed by red blood cell lysis. Kidney lymphocytes were separated from connective tissue by centrifugation (15 minutes at 400g) in 30% Percoll (GE Healthcare). CD4^+CD25^− cells from spleen and kidney were isolated using the CD4^+CD25^+ regulatory T cell isolation kit according to manufacturer's protocol (Miltenyi). CD11b+ cells were isolated using EasySep mouse CD11b positive selection kit (StemCell Technologies), surface stained for Ly6C and Ly6G prior to sorting myeloid-derived suppressor cells (MDSC) using FACSAria II. Populations were >95% pure by FACS analysis.
Single-cell suspensions from spleen or kidneys were stained for extracellular markers for 20 min at 4° C. in PBS/1% FBS. Intracellular staining for Foxp3 and cytokines was performed using the Foxp3 Fixation/Permeabilization kit according to the manufacturer's protocol (eBioscience). Cells were acquired on a FACS LSR II (BD) and data was analyzed using Flowjo (Tree Star).

[2] = test system: lupus nephritis in BWF1 mice; test: Preventive treatment of pre-nephritic BWF1 mice (survival, proteinuria, creatinine, anti-dsDNA, renal histology, IgG/C3 deposition); conditions: for Serum/plasma IgG anti-dsDNA antibody levels / Prevention of proteinuria: preventive treatment; for Serum/plasma IgG anti-dsDNA antibody levels: LAQ 1 or 25 mg/kg; for Prevention of proteinuria: both LAQ doses (1, 25 mg/kg); for Mice with proteinuria at 32 wks. of age: water 50%, p<0.0001; for Glomerular deposition of Ig and C3: treated prior to onset of clinical nephritis, vs water group p<0.001
Procedure: Clinical and immune cell changes were compared in groups of 10-12 BWF1 female mice in the following groups: • Group 1: Water orally 3 times a week for 24 weeks. • Group 2: Laquinimod 1 mg/kg orally 3 times a week for 24 weeks. • Group 3: Laquinimod 25 mg/kg orally 3 times a week for 24 weeks. • Group 4: Mycophenolate Mofetil 30 mg/kg orally […] for 24 weeks. • Group 5: Mycophenolate Mofetil 100 mg/kg orally […] for 24 weeks (“MMF 100”).
Preventive Group: 11-week old (pre-nephritic) BWF1 female mice were treated orally 3 times a week with a) water; b) laquinimod at 1 mg/kg (LAQ1, low dose) or c) 25 mg/kg (LAQ25, high dose) (Teva Pharmaceutical); or 5 times a week with d) mycophenolate mofetil at 30 mg/kg (MMF30, low dose) or e) 100 mg/kg (MMF100, high dose).
(§1) Proteinuria was evaluated weekly using Albustix (Siemens), serum creatinine using a commercial kit (Arbor Assays) and anti-dsDNA IgG antibodies by ELISA as described previously (10). See, e.g., FIGS. 1 and 2.
(§2) Kidney specimens of BWF1 mice (37 weeks of age in the prevention group or 7 and 11 weeks after institution of early or late therapies) were embedded in OCT compound and snap frozen. 4-5 μm an sections were air-dried, fixed with cold acetone and incubated with blocking buffer (anti-CD16/CD32 (1/50), 2% normal goat or rat serum, 2% BSA).
Immunoglobulin G and C3 complement glomerular deposition were investigated by incubation of cryosections with fluoroscein isothiocyanate (FITC)-conjugated goat anti-mouse IgG (1:50) (Sigma) or rat anti-mouse C3 (1:800) (Solulink) in blocking buffer for 2 hours at room temperature. Images were acquired using Nikon Eclipse TE2000-U microscope and MetaMorph 6.3 software (Sunnyvale, Calif.). Quantification of the area immunostained in tissue sections was made using the computer image analysis software ImageJ (rsbinfonihgov</>ij</>indexhtml). For histology, kidney sections were fixed in 10% formalin and 2 μm-paraffin sections were stained with H&E, PAS and methenamine silver (Jones) for histological analysis.
(§3) Histological analysis of glomerular pathology was done by an investigator blinded to treatment group and included acute inflammatory features (endocapillary hypercellularity, mesangial hypercellularity, cellular necrosis, cellular crescents, and interstitial inflammation), and chronic features (global glomerulosclerosis (GS), focal segmental glomerulosclerosis (FSGS), and interstitial fibrosis or tubular atrophy (IF/TA)). The severity of each feature was graded as 0 (absent), 1 (lesions involving up to 25% of the component evaluated), 2 (lesions in 26-50% evaluated) or 3 (lesions in >50%) in each field of the microscope at 400× magnification. The weighted total score of the clinical features was based on this formula: [endocapillary hypercellularity+mesengial hypercellularity+(cellular necrosis*2)+(cellular crescents*2)+interstitial inflammation)/5]+(GS+FSGS+IFTA)/3, with maximum score 5.2. A minimum of 25 glomeruli, of at least 10 mice per group, were scored. Scores from each individual mouse were added and averaged to yield the glomerulonephritis score.

[3] = test system: BWF1 mice with high proteinuria (PU^hi); test: Therapeutic treatment of BWF1 mice after clinical nephritis / high proteinuria (PU^hi); conditions: for Survival: treated after clinical nephritis / PU^hi, LAQ 25 mg/kg 3 times a week, MMF 100 mg/kg 5 times a week
Procedure: Therapeutic Groups: a low proteinuria group)(PU^lo) consisted of mice with IgG anti-dsDNA detectable in serum and proteinuria ≦100 mg/dL, and a high proteinuria group (PU^hi) had proteinuria ≧300 mg/dL.
as §1, §2
as §3, with “The severity of each feature was graded as 0 (absent), 1 (lesions involving up to 25% of the component evaluated), 2 (lesions in 26-50% evaluated) or 3 (lesions in >50%) in each field of the microscope at 400× magnification.” left out

[4] = Preventive, 25 weeks after treatment
[5] = Therapeutic (PU^lo), 10 wks after initiation of therapy

SMILES: CCN(C(=O)c1c(O)c2c(Cl)cccc2n(C)c1=O)c1ccccc1 [LAQ, 5-chloro-N-ethyl-4-hydroxy-1-methyl-2-oxo-N-phenyl-1,2-dihydroquinoline-3-carboxamide]
- Frequency of cells ± SEM: CD4+ [1, 4]: 7.0 ± 0.5
- Frequency of cells ± SEM: CD8+ [1, 4]: 4.2 ± 0.2
- Frequency of cells ± SEM: CD11b^+Ly6C^+Ly6G+ [1, 4]: 7.9 ± 1.9
- Frequency of cells ± SEM: CD11b^+Ly6C^+Ly6G− [1, 4]: 44.4 ± 1.5
- Frequency of cells ± SEM: CD11b^+MDSC−(Mφ) [1, 4]: 31.0 ± 1.8
- Frequency of cells ± SEM: CD11c^+CD11b+(DC) [1, 4]: 0.7 ± 0.1
- Frequency of cells ± SEM: CD11c^+CD11b− (DC) [1, 4]: 3.8 ± 0.2
- Frequency of cells ± SEM: CD19+ [1, 4]: 4.0 ± 0.5
- Frequency of cells ± SEM: CD4+ [1, 5]: 2.8 ± 0.3
- Frequency of cells ± SEM: CD8+ [1, 5]: 2.7 ± 0.2
- Frequency of cells ± SEM: CD11b^+Ly6C^+Ly6G+ [1, 5]: 13.6 ± 1.2
- Frequency of cells ± SEM: CD11b^+Ly6C^+Ly6G− [1, 5]: 41.2 ± 0.4
- Frequency of cells ± SEM: CD11b^+MDSC−(Mφ) [1, 5]: 28.4 ± 0.9
- Frequency of cells ± SEM: CD11c^+CD11b+(DC) [1, 5]: 0.7 ± 0.1
- Frequency of cells ± SEM: CD11c^+CD11b− (DC) [1, 5]: 1.2 ± 0.1
- Frequency of cells ± SEM: CD19+ [1, 5]: 2.7 ± 0.2
- Number of MM in the kidneys ([1]; mouse, in vivo): suppresses numbers of monocytes/macrophages
- Phenotype of MM isolated from kidneys ([1]; mouse, in vivo): promoting change from M1 to M2 phenotypes
- Number of MM in the kidneys ([1]; mouse, in vivo, listed as laquinimod): significantly reduced
- Survival vs. controls ([2]; BWF1 females treated orally for 24 weeks before disease, LAQ 1 and 25 mg/kg, MMF 100 mg/kg, p=0.028): better
- Development of proteinuria six weeks after the treatment ([2]; FIG. 5, treated three days of each week prior to proteinuria): did not develop proteinuria
- Survival, low dose treatment ([2]; LAQ 1 mg/kg 3 days a week, MMF 30 mg/kg 5 days a week, prior to anti-dsDNA and proteinuria, vs water): significantly better; also recorded: still alive at 45 weeks
- Chronic scarring (GS, FSGS, IFTA) in kidney ([2]; higher doses, treated before proteinuria, vs water): less
- Onset of proteinuria beyond 32 weeks up until about 42 weeks ([2]; low dose: LAQ 1 mg/kg 3 times a week, MMF 30 mg/kg): completely prevented onset of proteinuria
- Serum/plasma IgG anti-dsDNA antibody levels ([2]; MMF 100 mg/kg, vs water): suppressed; also recorded: significantly lower; also recorded: lower anti-DNA levels
- Serum/plasma IgG anti-dsDNA antibody levels ([2]; MMF 100 mg/kg, vs water, listed as Laquinimod): suppressed
- Prevention of proteinuria ([2]; MMF 100 mg/kg): equivalent to MMF100 and completely prevented proteinuria and prevented the appearance of proteinuria and none
- Prevention of proteinuria ([2]; MMF 100 mg/kg, listed as Laquinimod): equivalent to MMF 100
- Kidney specimens (histology, glomerular IgG and C3 deposits) ([2]; preventive, LAQ 25 mg/kg, MMF 100 mg/kg, after more than 50% of controls developed high proteinuria): largely unremarkable
- Rise in serum creatinine levels ([2]; preventive, LAQ 25 mg/kg, after 18 weeks of treatment): significantly delayed; also recorded: prevented a rise in serum creatinine
- Mice with proteinuria at 32 wks. of age ([2]; treated before disease, LAQ 1 and 25 mg/kg, MMF 100 mg/kg): zero
- Mice with proteinuria at 32 wks. of age ([2]; treated before disease, LAQ 1 and 25 mg/kg, MMF 100 mg/kg, listed as Laquinimod): none
- Mean total histologic score (renal histology) ([2]; treated before disease, MMF 100 mg/kg, water 7.8, p<0.01): 1.0
- Glomerular deposition of Ig and C3 [2]: in the normal range; also recorded: significantly decreased
- Glomerular deposition of Ig and C3 ([2]; listed as laquinimod): in the normal range
- Rise in serum creatinine ([3]; PU^hi arm, LAQ 25 mg/kg, MMF 100 mg/kg): suppresses
- Animals with proteinuria reduced to levels below 300 mg/dL ([3]; PU^hi arm, after 8 weeks of treatment, LAQ 25 mg/kg, MMF 100 mg/kg): 50%
- FSGS and IF/TA histology scores ([3]; PU^hi arm, compared to controls): significantly lower
- Endo-capillary hypercellularity in the kidney ([3]; PU^hi arm, versus both control and MMF-treated mice): significantly lower
- Established proteinuria ([3]; mice that already developed proteinuria, vs water): significant reduction of proteinuria; also recorded: suppresses proteinuria
- Survival ([3]; vs water): better; also recorded: significantly increased survival; also recorded: survived
- Survival ([3]; vs water, listed as laquinimod): better
- Mice with proteinuria present after 3 wks. of treatment ([3]; treated after clinical nephritis appeared (≧3+ proteinuria), water 100%, p<0.001): 25%
- Histologic evidence of inflammation in the kidneys ([3]; treatment starting after proteinuria developed, vs water): significantly less histologic evidence of inflammation
